Experimental data from US10781183B2, “Small molecule inducers of reactive oxygen species and inhibitors of mitochondrial activity” (The Regents of the University of Michigan, priority 2016, dated 2020).
Like-named read-outs stand apart in the source and are kept apart here.

Key:
BxPC-3 cells = assay: MTT cytotoxicity assay, BxPC-3; assay type: cell-based; conditions: Homo sapiens, three independent experiments
Description: (§1) MiaPaCa-2, Panc-1 and BxPC-3 pancreatic cancer cell lines were obtained from the ATCC. Normal pancreatic cells HPDE and HPNE were kindly provided (Translational Oncology Program, University of […], Ann Arbor, Mich.). Gemcitabine resistant cell line MiaPaCa-2-GR (gemcitabine resistant) was kindly provided (Department of Pathology, Wayne State University, Detroit, Mich.). All cell lines were cultured as monolayer and maintained in RPMI1640 supplemented with 10% fetal bovine serum (FBS) in a humidified atmosphere with 5% CO2 at 37° C. MiaPaCa-2-GR culture was supplemented with 200 nM gemcitabine.
(§2) Cytotoxicity of compounds was evaluated with 3-(4,5-dimethylthiazol-2-yl)-2,5-diphenyltetrazolium bromide (MTT) assay. Cells were placed in 96-well plate at 3000-8000 cells/well. After overnight attachment, compounds were added to the wells at sequential dilutions (30 nM-10 μM for most cell lines). After 72 h treatment, MTT was added into the media to a final concentration of 300 μg/mL. Cells were incubated for 3 h at 37° C., and the insoluble formazan converted by viable cells were dissolved in 150 μL of DMSO. Absorbance at 570 nm was read by microplate reader (Molecular devices, Sunnyvale, Calif.), and inhibition of cell proliferation was calculated using the following formula: Inhibition of cell proliferation (%)=(1−ODtreatment/ODcontrol)×100%

MiaPaCa-2 xenograft = MiaPaCa-2 xenograft studies; assay type: in vivo, NOD/SCID mice
Description: MiaPaCa-2 cells (2.0×10^6) in a 100 μL suspension of RPMI1640 was injected subcutaneously into dorsal flank of 6-week NOD/SCID mice. Tumor size was monitored twice a week through caliper measurement using the following equation: V=d^2×D/2, where d represents width and D represents length of the tumor. In study 1, mice were randomly grouped (n=5 per group) when average tumor size reached 65 mm^3. Daily treatment was given at five days on two days off cycles. QD325 was given at 5 mg/kg in 100 μL vehicle (5% DMSO, 60% Propylene glycol, 35% Saline) by intraperitoneal injection. […] Unpaired t test was performed for data analysis and p<0.05 was considered significant. […] Procedures for study 2 with gemcitabine treatment are detailed in supplemental information.
On necropsy, tumors, hearts, kidneys, livers, lungs, spleens and pancreases were collected, fixed in 10% neutral buffered formalin, embedded in paraffin, and sectioned. Sections ([…]) were stained with hematoxylin and eosin to facilitate histologic examination. For Ki67 expression level, immunohistochemistry staining was performed on sections with Ki67 antibody. Embedding, sectioning and staining of samples were performed by ULAM pathology core for animal research at the University of Michigan. Representative images were taken on Olympus IX83 microscope with 20× magnification.

HPDE = assay: MTT cytotoxicity assay, immortalized pancreatic cell line HPDE; assay type: cell-based, human; conditions: HPDE vs MiaPaCa-2
Description: as §1, §2

MiaPaCa-2 cells [1] = assay: Bru-seq analysis for nascent RNA synthesis; assay type: cell-based
Text: A bromouridine labeled RNA sequencing (Bru-seq) technique was used to better characterize molecular mechanisms of these novel agents. Bru-seq is able to capture real-time synthesis of the nascent RNA, so as to provide information on global gene transcription without interference by RNA stability or biased gene selection (Paulsen et al., 2014, Paulsen et al., 2013). […] Profiling of all genes with >1.5-fold change in expression upon treatment of QD232 or QD325 identified NRF2-mediated oxidative stress response and unfolded protein response (UPR) as key pathways implicated in drug action (FIG. 8A).
Bru-seq analysis was performed as previously reported (Paulsen et al., 2014). Briefly, 4×10^6 MiaPaCa-2 cells were placed in 10 cm dishes on Day 1. On Day 2, cells were treated with DMSO, QD232 or QD325 for 4 h. Bromouridine was added into the media to label newly synthesized nascent RNA in the last 30 min of treatment to a final concentration of 2 mM. Cells were then collected in TRIZOL and total RNA was isolated. Bromouridine containing RNA population was further isolated and sent for sequencing. Sequencing reads were mapped to the HG19 reference genome. Pre-ranked gene lists were generated for each treatment through ranking genes by fold changes in gene synthesis levels compared with control, and analyzed with GSEA (Broad Institute, MA) (Subramanian et al., 2005, Mootha et al., 2003)

MiaPaCa-2 cells [2] = assay: MTT cytotoxicity assay, MiaPaCa-2; assay type: cell-based; conditions: for IC50: Homo sapiens, Mean ± SD, three independent experiments
Description: as §1, §2

[3] = test system: mtDNA content in MiaPaCa-2 cells; assay: Measurement of mtDNA content by qPCR; assay type: cell-based; conditions: MiaPaCa-2 (FIG. 11C)
Description: To assess mtDNA content, genomic DNA was isolated with QIAamp® DNA mini kit (Qiagen, Germantown, Md.) from MiaPaCa-2 cells. The mtDNA content was evaluated by co-amplifying a DNA fragment encoding mitochondrial 12S rRNA (forward primer: 5′-[…]-3′; reverse primer: 5′-TGCGCTTACTTTGTAG CCTTCAT-3′) and a DNA fragment encoding the nuclear 18S rRNA (forward primer: 5′-CCCTGCC CTTTGTACACACC-3′; reverse primer: 5′-GATCCGAGGGCCTCACTA-3′). (Vadrot et al., 2012) Real-time qPCR was performed on Viia7 cycler (Applied Biosystems). Amplifications were monitored and analyzed by measuring the intercalation of the fluorescent dye from Fast SYBR® Green Master Mix (Applied Biosystems). Relative mtDNA contents were calculated using 18S rRNA as gene reference.

O=C1C(Nc2ccc(-c3ccccc3)cc2)=CC(=O)c2ncncc21 [QD325, 6-([1,1′-biphenyl]-4-ylamino)quinazoline-5,8-dione]
IC50 (BxPC-3 cells; BXPC-3, 72 h, Table 1, 72 h, Mean ± SD): < 1000 nM | IC50 (BxPC-3 cells; BXPC-3, Table 2, Mean ± SD, read-out: IC 50 BxPC-3): 500 ± 100 nM | average tumor size at the end of the 48-day treatment period (MiaPaCa-2 xenograft; QD325 5 mg/kg five times a week, gemcitabine 15 mg/kg once a week, control 1503±189 mm^3): 248±72 mm^3 | growth of tumors (MiaPaCa-2 xenograft; QD325 5 mg/kg i.p. five times a week, treatment period of 44 days): significantly delayed growth of tumors | average tumor size on day 44 (MiaPaCa-2 xenograft; QD325 5 mg/kg i.p. five times a week, n=5, control 1291±168 mm^3): 308±72 mm^3 | NQO1, HO-1, CHOP and GRP78 protein levels in tumor lysates (MiaPaCa-2 xenograft; QD325 treated tumors vs vehicle controls (FIG. 12E)): significantly upregulated | growth of tumors at higher doses (MiaPaCa-2 xenograft; after day 44, dose increased from 5 to 20 mg/kg until day 67, two mice per group): able to delay growth of the tumors | Ki67 levels in tumor tissues (MiaPaCa-2 xenograft; immunohistochemistry of xenograft sections, QD325 5 mg/kg (FIG. 12D)): decreased Ki67 levels | selectivity for MiaPaCa-2 over HPDE (HPDE): 3 fold | apoptosis signaling (IPA analysis) (MiaPaCa-2 cells [1]; 4 h, QD232 3 times IC50, QD325 5 times IC50 (FIG. 4)): significant activation of apoptosis signaling | nascent RNA synthesis of mitochondrial genome (MiaPaCa-2 cells [1]; 4 h, QD232 at 6.9 μM, QD325 at 5.0 μM (FIG. 10A)): inhibited | transcription of DDIT3 and HSPA5 (MiaPaCa-2 cells [1]; 4 h treatment, dose dependently (FIG. 8C)): significantly increased | synthesis of NQO1 and HMOX1 RNAs (MiaPaCa-2 cells [1]; 4 h treatment, QD232 at 1, 2 or 3 times IC50, QD325 at 1, 2 or 5 times IC50 (FIG. 8B)): dose-dependently upregulated | IC50 (MiaPaCa-2 cells [2]; MIA PaCa-2, 72 h, Table 1, MTT assay, 72 h): < 1000 nM | IC50 (MiaPaCa-2 cells [2]; MIA PaCa-2, Table 2, MTT assay, read-out: IC 50 MiaPaCa-2): 900 ± 200 nM | improvement in cytotoxicity compared with QD232 (MiaPaCa-2 cells [2]; MTT assay in PDAC cell lines MiaPaCa-2, Panc-1 and BxPC-3): more than two fold improvement in cytotoxicity | cytotoxicity in presence of NAC (MiaPaCa-2 cells [2]; MTT assay, 72 h, NAC 5 mM (FIG. 3C)): decreased cytotoxicity | relative levels of mtDNA over time [3]: decreased time dependently
